# Values quoted from earlier work in patent US20140107053A1, “APPLES WITH HIGH POLYPHENOLIC CONTENT” (CORESSENCE LIMITED, priority 2006, published 2014).
# Assays:
# [1] = indicated by Tmax values in human studies
# [2] = compared to (−)-epicatechin monomers (Shoji et al. 2006)
site of absorption [1],detection in human plasma,Compound,other results
absorbed mainly in the small intestine,,O.Oc1cc(O)c2c(c1)O[C@H](c1ccc(O)c(O)c1)[C@@H](O)C2 [catechin],bioavailability [2]: relatively low bioavailability
,detected at low levels,"Oc1cc(O)c2c(c1)O[C@H](c1ccc(O)c(O)c1)[C@H](O)[C@H]2c1c(O)cc(O)c2c1O[C@H](c1ccc(O)c(O)c1)[C@@H](O)C2 [Apple B1, epicatechin-(4β-8)-catechin]",
,,"Oc1cc(O)c2c(c1)O[C@H](c1ccc(O)c(O)c1)[C@H](O)[C@H]2c1c(O)cc2c(c1O)C[C@@H](O)[C@@H](c1ccc(O)c(O)c1)O2 [Apple B5, epicatechin-(4β-6)-epicatechin]",detection in plasma (after chocolate consumption (Holt et al. 2002)): could not be detected
absorbed mainly in the small intestine,,epicatechin,
,detected at low levels,"Oc1cc(O)c2c(c1)O[C@H](c1ccc(O)c(O)c1)[C@H](O)[C@H]2c1c(O)cc(O)c2c1O[C@H](c1ccc(O)c(O)c1)[C@H](O)C2 [Apple B2, epicatechin-(4β-8)-epicatechin]",
